Assay results published in ChEMBL document CHEMBL4400564, “Structure-activity relationship studies of Bz amide-containing α-GalCer derivatives as natural killer T cell modulators” (Bioorg Med Chem Lett, 2019).
Calls of active or inactive are those of the source. The rule behind the calls is not given here.

Assays:
[1] = molecular target: T1, Antigen-presenting glycoprotein CD1d1 (Mus musculus) (UniProt P11609); assay: Binding affinity to Ig-tagged mouse CD1d assessed as increase in IL-2 production in NKT hybridoma cells exposed to 24 hrs pre-treated compound/CD1d mixture and measured after 48 hrs by ELISA based APC free assay; format: cell-based
T1 sequence (whole entry): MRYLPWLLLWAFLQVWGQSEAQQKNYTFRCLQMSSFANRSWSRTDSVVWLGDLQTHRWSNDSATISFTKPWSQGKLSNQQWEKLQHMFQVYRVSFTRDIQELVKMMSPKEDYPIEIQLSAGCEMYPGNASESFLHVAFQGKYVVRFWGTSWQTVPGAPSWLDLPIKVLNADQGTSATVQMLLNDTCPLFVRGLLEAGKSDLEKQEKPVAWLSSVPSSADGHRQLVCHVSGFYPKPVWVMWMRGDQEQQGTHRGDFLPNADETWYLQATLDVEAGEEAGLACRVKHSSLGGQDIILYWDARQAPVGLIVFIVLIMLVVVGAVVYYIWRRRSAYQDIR

Splenocyte [2] = assay: Reduction of IFN-gamma production in C57BL/6J mouse splenocyte at 1 to 100 nM after 48 hrs by ELISA relative to alpha-GalCer; format: functional, cell-based
Splenocyte [3] = assay: Induction of IL-4 production in C57BL/6J mouse splenocyte at 1 to 100 nM after 48 hrs by ELISA relative to alpha-GalCer; format: functional, cell-based

SMILES | Activity [1] | Activity (Splenocyte [2]) | Activity (Splenocyte [3])
CCCCCCCCCCCCCC[C@@H](O)[C@@H](O)[C@H](CO[C@H]1O[C@H](CO)[C@H](O)[C@H](O)[C@H]1O)NC(=O)CCCCCCCCCCCNC(=O)C1CCNCC1 | Dose-dependent effect | Active | Active
CCCCCCCCCCCCCC[C@@H](O)[C@@H](O)[C@H](CO[C@H]1O[C@H](CO)[C@H](O)[C@H](O)[C@H]1O)NC(=O)CCCCCCCCCCCNC(=O)c1ccc(OC)cc1 | Dose-dependent effect | Active | Active
CCCCCCCCCCCCCC[C@@H](O)[C@@H](O)[C@H](CO[C@H]1O[C@H](CO)[C@H](O)[C@H](O)[C@H]1O)NC(=O)CCCCCCCCCCCNC(=O)C(C)(C)C | Dose-dependent effect | Active | Active
CCCCCCCCCCCCCC[C@@H](O)[C@@H](O)[C@H](CO[C@H]1O[C@H](CO)[C@H](O)[C@H](O)[C@H]1O)NC(=O)CCCCCCCCCCCNC(=O)c1ccc(F)cc1 | Dose-dependent effect | Active | Active
CCCCCCCCCCCCCC[C@@H](O)[C@@H](O)[C@H](CO[C@H]1O[C@H](CO)[C@H](O)[C@H](O)[C@H]1O)NC(=O)CCCCCCCCCCCNC(=O)c1cccc(OC)c1 | Dose-dependent effect | Active | Active
CCCCCCCCCCCCCC[C@@H](O)[C@@H](O)[C@H](CO[C@H]1O[C@H](CO)[C@H](O)[C@H](O)[C@H]1O)NC(=O)CCCCCCCCCCCNC(=O)C1CCCCC1 | Dose-dependent effect | Active | Active
CCCCCCCCCCCCCC[C@@H](O)[C@@H](O)[C@H](CO[C@H]1O[C@H](CO)[C@H](O)[C@H](O)[C@H]1O)NC(=O)CCCCCCCCCCCNC(=O)c1cccc(F)c1 | Dose-dependent effect | Active | Active

Continued, in another order:

Activity [1] | SMILES | Activity (Splenocyte [2]) | Activity (Splenocyte [3])
Dose-dependent effect | CCCCCCCCCCCCCC[C@@H](O)[C@@H](O)[C@H](CO[C@H]1O[C@H](CO)[C@H](O)[C@H](O)[C@H]1O)NC(=O)CCCCCCCCCCCNC(=O)c1ccccc1OC | Active | Active
Dose-dependent effect | CCCCCCCCCCCCCC[C@@H](O)[C@@H](O)[C@H](CO[C@H]1O[C@H](CO)[C@H](O)[C@H](O)[C@H]1O)NC(=O)CCCCCCCCCCCNC(=O)c1ccccc1F | Active | Active
Dose-dependent effect | CCCCCCCCCCCCCC[C@@H](O)[C@@H](O)[C@H](CO[C@H]1O[C@H](CO)[C@H](O)[C@H](O)[C@H]1O)NC(=O)CCCCCCCCCCCNC(=O)c1ccccc1 | Active | Active
